In experiment [1] the test system is gram-positive and gram-negative bacteria. Nature of the experiment: Antibacterial spectra in vitro (MIC), summary in words. The format is cell-based. The following applies: compared to cefroxadine. The source says:
Minimum inhibitory concentrations (MIC.) (mcg/ml) as determined by serial
dilution method on agar plates

Another experiment has as its system Escherichia coli No. 29. Nature of the experiment: Curative effect by oral administration in mice infected intraperitoneally with Escherichia coli No. 29 (survival over 7 days). The format is in vivo. As to conditions: for number of surviving mice: three mice in each group, 7 days. An excerpt:
Thus, some tests were made to evaluate the curative effects of the new compound of this invention in therapeutic treatment of bacterial infections when the new compound was orally given to mice (average body weight 20 g) which had been infected with Escherichia coli No. 29. In these tests for therapeutic treatment of the bacterial infection, mice (three mice in each group) were inoculated intraperitoneally with Escherichia coli No. 29 at an inoculmn dose of 3.25×10^5 CFU/mouse and then immediately treated by oral administration of the test compound. For the subsequent 7 days, the mice were kept under observation and the number of surviving mice was counted.

Structures can show the parent of a compound that is named as a salt.

As to `CSC1=C(C(=O)O)N2C(=O)C(NC(=O)C(C(=O)O)c3ccsc3)C2OC1` (stereo not shown) [Example 4(b), 7-[2-(3-thienyl)-2-carboxyacetamido]-1-oxa-1-dethia-3-methylthio-3-cephem-4-carboxylic acid], in experiment [1], the “antibacterial activity against resistant strains of bacteria” value (from here on “antibacterial activity”) was “effective and higher antibacterial activity against resistant strains of bacteria than cefroxadine”; the “antibacterial spectrum (range)” value was “wider range of the antibacterial spectrum than cefroxadine”.
For the compound `CO/N=C(\C(=O)NC1C(=O)N2C(C(=O)O)=C(SC)COC12)c1csc(N)n1` (stereo not drawn) [Example 6(b), 7-[2-(2-amino-4-thiazolyl)-2-methoxyiminoacetamido]-1-oxa-1-dethia-3-methylthio-3-cephem-4-carboxylic acid trifluoroacetate (syn-isomer)], the “number of surviving mice” value with Escherichia coli No. 29 (0.1 mg/mouse) came to 1 mice; with Escherichia coli No. 29 (1 mg/mouse), 3 mice; with Escherichia coli No. 29 (5 mg/mouse), 3 mice; in the experiment on Escherichia coli No. 29 (10 mg/mouse), 3 mice. Further, the “curative effects in therapeutic treatment of the bacterial infection in vivo” value in the experiment on Escherichia coli No. 29 (mice infected with Escherichia coli No. 29) is recorded as “better curative effects in therapeutic treatment of the bacterial infection in vivo”.
For the compound `CSC1=C(C(=O)O)N2C(=O)C(NC(=O)Cc3cccs3)C2OC1` (stereo not shown) [Example 1(b), 7-(2-thienylacetamido)-1-oxa-1-dethia-3-methylthio-3-cephem-4-carboxylic acid], in experiment [1], the “antibacterial activity” value was “effective and higher antibacterial activity against resistant strains of bacteria than cefroxadine”; the “antibacterial spectrum (range)” value is “wider range of the antibacterial spectrum than cefroxadine”.
For `CSC1=C(C(=O)O)N2C(=O)C(NC(=O)Cc3ccsc3)C2OC1` (stereo not shown) [Example 2(b), 7-(3-thienylacetamido)-1-oxa-1-dethia-3-methylthio-3-cephem-4-carboxylic acid], in experiment [1], the “antibacterial activity” value is “effective and higher antibacterial activity against resistant strains of bacteria than cefroxadine”; the “antibacterial spectrum (range)” value was “wider range of the antibacterial spectrum than cefroxadine”.
Regarding `CSC1=C(C(=O)O)N2C(=O)C(NC(=O)C(C(=O)O)c3cccs3)C2OC1` (stereo not shown) [Example 3(b), 7-[2-(2-thienyl)-2-carboxyacetamido]-1-oxa-1-dethia-3-methylthio-3-cephem-4-carboxylic acid], in experiment [1], the “antibacterial activity” value is “effective and higher antibacterial activity against resistant strains of bacteria than cefroxadine”; the “antibacterial spectrum (range)” value is given as “wider range of the antibacterial spectrum than cefroxadine”.

The values above are taken from patent US4497811A, “1-Oxadethiacephalosporin compound and antibacterial agent containing the _same” (priority 1983, dated 1985).
